Literature values, collected in patent US8007820B2, “Wide spectrum insecticide and miticide composition” (W. Neudorff GmbH KG, priority 2005, dated 2011).

Conditions: as formulated material

shelf life: about three
Substance: Spinosad
